# Read-outs that look alike come from different tables or passages of the source.
# Tests used:
# [1] = test system: L. donovani intracellular amastigotes infecting THP-1 cells; test: High content intracellular amastigote assay in THP-1 cells (Assay Conditions B; CDIPD screen); assay type: cell-based, Leishmania donovani; details: for L. donovani amastigotes % GI at 10 μM (THP-1 cells): footnote b
# Description: (§1) Assay Conditions B: THP-1 cells (human acute monocytic leukemia cell line—ATCC TIB202) were grown in RPMI supplemented with 10% Fetal Bovine Serum (FBS) and 50 μM 2-mercaptoethanol at 37° C. in 5% CO2. THP-1 were seeded in microwell plates at 5×10^5 cells/mL density and treated with 0.1 μM phorbol myristate acetate (PMA, Sigma) at 37° C. for 48 h for differentiation into adherent, non-dividing macrophages. After activation by PMA, cells were washed and incubated with complete RPMI medium containing stationary phase Leishmania promastigotes (L. major: strain LV39; L. donovani, strain 1S/Cl2D) at a 1:15 parasite-cell ratio. Compounds were added and incubated at 37° C. for 72 h. Cells were then washed with phosphate-buffered saline (PBS), fixed for 30 minutes with 4% formaldehyde, rinsed again with PBS, stained for 2 h with 4′,6′-diamidino-2-phenylindole (DAPI 300 nM) and finally washed with PBS. In a collaborative effort to identify new antileishmanial chemotypes with minimal host cell cytotoxicity, compounds from the Boston University Center for Molecular Discovery (BUCMD) screening collection were assessed in a phenotypic, high content primary screen at the University of California's Center for Discovery and Innovation in Parasitic Diseases (CDIPD) for the ability to inhibit growth of L. donovani intracellular amastigotes infecting THP-1 cells. […] Dose-response testing in L. donovani (both intracellular amastigotes and promastigotes) confirmed concentration-dependent growth inhibition of both morphologies of the parasite at low micromolar EC50 values for both compounds (Table 1).
# THP-1 cells = test: Host THP-1 cell cytotoxicity in the CDIPD high content screen; assay type: cell-based, human; details: Homo sapiens, THP-1; 10 μM; footnote b; read-out: THP-1 host cell % growth inhibition at 10 μM
# Description: as §1
# [2] = GSK inMac assay, host cell toxicity readout (LD MAC); assay type: cell-based, human; details: human; footnote c; read-out: THP-1 Host Cell CC50
# In short: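 Intramacrophage L. donovani assay in THP-1 macrophages; host toxicity taken from host cell number per well, giving MAC EC50. Run alongside amastigote-per-cell and infected-cell readouts in the same wells.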
# [3] = UCSD infection assay, host cell cytotoxicity (CC50); assay type: cell-based; details: mouse, B10R host cells infected with L. donovani
# Description: (§2) Assay Conditions D: B10R cells (CVCL_0155) were seeded at 300 cells/well, and L. donovani WT promastigotes in stationary phase (7th day after passage) were added at 6,000 parasites/well (ratio of 20 parasites/cell). Both cells and parasites were seeded in DMEM High-Glucose medium (Gibco, cat. no. 11995065) containing 5% Fetal Bovine Serum (Sigma-Aldrich, cat. no. F2442) and 1% Penicillin-Streptomycin (Gibco, cat. no. 15140122). Cells and parasites were incubated in the presence of the compounds for 72 h at 37° C. and 5% C02. Plates were then fixed with 4% formaldehyde solution for at least 1 h, then washed with 1×PBS and stained with 5 μg/mL DAPI. Plates were read using an ImageXpress microscope (Molecular Devices) and analyzed by MetaXpress software (Molecular Devices) using a custom module optimized for this assay. […] Compounds were tested in a 10-point 2-fold serial dilution in 3 technical replicates, and 2 biological replicates. After 72 h, plates were fixed and stained with DAPI as described above. Images were acquired on an ImageXpress microscope, and analyzed using the MetaXpress custom module.
# as §2, with “Compounds were obtained as 0.2 μmoles of dried film for primary single point screening. Each compound was diluted in DMSO to 10 μM final testing concentration. These compounds were tested in 2 biological replicates. The compounds were pre-spotted onto 384-well assay plates in single concentration.” for “Assay Conditions D:”, “CO2.” for “C02.”, “module. The DRCs were plotted, half-effective concentration (EC50) and half-cytotoxic concentration (CC50) were calculated using GraphPad Prism Software, version 6.05 (GraphPad Software, San Diego, CA).” for “module.”
# [4] = test system: L. donovani intracellular amastigotes in B10R cells; test: UCSD L. donovani infection assay (Assay Conditions D); assay type: cell-based; details: for L. donovani amastigotes EC75 (B10R cells): footnote d
# In short: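 B10R cells (300/well) infected with stationary-phase L. donovani WT promastigotes at 20 parasites/cell in DMEM high-glucose, 5% FBS, with compounds 72 h at 37° C., 5% CO2. Formaldehyde-fixed, DAPI-stained, imaged by high-content microscopy; 10-point 2-fold dilutions (screen at 10 μM) gave EC50 and host CC50.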
# [5] = test system: L. braziliensis (strain BA788) in J774 cells; test: J774 luciferase infection assay (Assay Conditions E); assay type: cell-based, Leishmania braziliensis; details: for L. braziliensis amastigotes EC75 (J774 cells): footnote e
# Description: Assay Conditions E: J774 cells (ATCC J774A.1 were grown in DMEM supplemented with 10% Fetal Bovine Serum (FBS) and 1% Penicillin-Streptomycin at 37° C. in 5% CO2. Leishmania parasites expressing luciferase and GFP were grown as described in Front. Cell. Infect. Microbiol (2019) 9:237. J774 cells were seeded in microwell plates at 3×10^5 cells/mL density. Cells were washed with PBS and incubated with complete DMEM medium containing stationary phase Leishmania promastigotes (L. major: strain Friedlin; L. braziliensis, strain BA788) at a 1:10 parasite-cell ratio for 24 h. Cells were washed with PBS. Cells and compounds were incubated for 48 h at 37° C. and 5% C02. Compounds were tested in 8-point 2-fold serial dilution in 4 technical replicates, and 2 biological replicates. After 48 h, OneTiterGlo (Promega) (100 μl) was added to each well. Plates were incubated for 15 min and bioluminescence was measured using a plate reader (Molecular Devices). Effective concentration inducing 75% activity (EC75) was calculated using GraphPad Prism Software (version 9.0).
# [6] = UCSD infection assay, host cell cytotoxicity (CC50); assay type: cell-based; details: host macrophages infected with L. donovani; cytotoxicity against host macrophages
# [7] = Kinetic aqueous solubility by CAD; assay type: physicochemical; details: aqueous medium, kinetic from dmso stock, high-throughput CAD
# Description: Solubility of compounds using ChemiLuminescent Nitrogen Detection (CLND) was measured as described. Solubility of compounds using Charged Aerosol Detection (CAD) was measured as described. Solubility of solid compounds in Fasted Simulated Intestinal Fluid (FaSSIF) was measured as described.
# human serum albumin = human serum albumin (Homo sapiens, UniProt P02768); test: Human serum albumin (HSA) binding, chromatographic; assay type: in vitro ADME
# Description: The percentage of compound bound to human serum albumin was measured using a chromatographic method as described. Briefly, each compound was assayed on an immobilized HSA column and gradient retention times measured, with chromatographic peak detection by UV. Each retention time was then converted to a % HSA bound value using a calibration set of compounds with a known % HSA binding.
# [8] = test system: L. donovani intracellular amastigotes infecting THP-1 macrophages; test: GSK intramacrophage L. donovani assay (LD AMMAC, inMac; Assay Conditions C); assay type: cell-based; details: Leishmania donovani, THP-1
# In short: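 L. donovani amastigotes within THP-1 macrophages; EC50 based on average intracellular amastigotes per infected cell (AMMAC). Infected-cell percentage (INFCELL) and host-cell number (MAC) also read, the latter as toxicity output.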
# [9] = Property forecast index (PFI = ChromLogD7.4 + aromatic rings); assay type: physicochemical
# [10] = Leishmania donovani, B10R cells, values marked d, read-out: L. donovani amastigotes EC50 (B10R cells)
# [11] = Leishmania donovani, average of two biological replicates, read-out: L. donovani EC50 (UCSD assay)
# Chain of human serum albumin (P02768 25-609): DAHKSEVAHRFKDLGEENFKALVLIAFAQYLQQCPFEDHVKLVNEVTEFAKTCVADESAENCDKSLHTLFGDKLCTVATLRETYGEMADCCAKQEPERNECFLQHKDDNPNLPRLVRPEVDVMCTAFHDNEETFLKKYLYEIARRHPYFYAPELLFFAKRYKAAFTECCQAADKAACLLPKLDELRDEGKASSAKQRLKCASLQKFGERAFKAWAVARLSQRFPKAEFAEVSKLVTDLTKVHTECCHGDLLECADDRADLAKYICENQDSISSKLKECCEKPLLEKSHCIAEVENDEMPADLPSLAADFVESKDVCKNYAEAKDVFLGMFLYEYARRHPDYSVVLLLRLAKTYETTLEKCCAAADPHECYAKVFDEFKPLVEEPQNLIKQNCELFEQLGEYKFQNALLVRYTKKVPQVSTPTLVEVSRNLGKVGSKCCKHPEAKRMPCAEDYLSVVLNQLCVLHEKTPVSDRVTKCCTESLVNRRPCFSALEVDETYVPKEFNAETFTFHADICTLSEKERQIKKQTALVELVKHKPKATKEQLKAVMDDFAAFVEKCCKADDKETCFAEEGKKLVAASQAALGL
structure (smiles),measurement,setting,value
COc1ccc(N2C(=O)c3[nH]nc(-c4ccccc4)c3C2c2ccccc2)cc1 (centres unmarked) [CMLD007203],L. donovani amastigotes % GI at 10 μM (THP-1 cells),[1],0.0%
same,inhibition at 10 µM,THP-1 cells,< 10%
COc1ccc(N2C(=O)c3[nH]nc(-c4ccccc4)c3C2c2ccc(C)cc2)cc1 (centres unmarked) [CMLD007262],L. donovani amastigotes % GI at 10 μM (THP-1 cells),[1],0.0%
same,inhibition at 10 µM,THP-1 cells,< 10%
COc1ccccc1C1c2c(CC(C)C)n[nH]c2C(=O)N1c1ccc(N(C)C)cc1 (centres unmarked) [CMLD011552],CC50,[2],3.5 µM
same,CC50 at 72 h,[3]; footnote d,3.98 µM
same,L. donovani amastigotes EC75 (B10R cells),[4]; B10R cells,0.1 µM
same,EC50,[4]; [10],100 nM
same,L. braziliensis amastigotes EC75 (J774 cells),[5],>10 µM
CC(C)Cc1n[nH]c2c1C(c1ccc(F)cc1Cl)N(c1cncc(F)c1)C2=O (centres unmarked) [BUCMD00694],CC50 at 72 h,[3]; footnote d,10 µM
same,L. donovani amastigotes EC75 (B10R cells),[4]; B10R cells,0.4 µM
same,L. braziliensis amastigotes EC75 (J774 cells),[5],>10 µM
C#CCCCCOc1ccc(C2c3c(CC(C)C)n[nH]c3C(=O)N2c2ccc(OC)nc2)c(Cl)c1 (centres unmarked) [BUCMD00738],CC50 at 72 h,[3]; host B10R cells,7.94 µM
same,"L. donovani amastigotes EC75 (μM, B10R cells)",[4]; B10R cells,>10 µM
same,"L. braziliensis amastigotes EC75 (μM, J774 cells)",[5],>10 µM
COc1ccc(N2C(=O)c3[nH]nc(CC(C)C)c3C2c2ccc(C)cc2)cc1 (centres unmarked) [CMLD007430],L. donovani amastigotes % GI at 10 μM (THP-1 cells),[1],0.0%
same,inhibition at 10 µM,"[1]; Leishmania donovani, THP-1, read-out: inhibition at 10 μM (initial screening)",0%
same,inhibition at 10 µM,THP-1 cells,< 10%
Cc1cc(F)ccc1C1c2c(CC(C)C)n[nH]c2C(=O)N1c1ccc(Br)cc1 (centres unmarked) [CMLD011565],CC50,[2],3 µM
same,CC50 at 72 h,[3]; footnote d,3.98 µM
same,L. donovani amastigotes EC75 (B10R cells),[4]; B10R cells,0.1 µM
same,EC50,[4]; [10],100 nM
same,L. braziliensis amastigotes EC75 (J774 cells),[5],5.0 µM
COc1ccc(N2C(=O)c3[nH]nc(-c4ccccc4)c3C2c2ccc(F)cc2)cc1 (centres unmarked) [CMLD007235],L. donovani amastigotes % GI at 10 μM (THP-1 cells),[1],0.0%
same,inhibition at 10 µM,THP-1 cells,30%
"COc1ccccc1C1c2c(CC(C)C)n[nH]c2C(=O)N1c1ccc(Br)cc1 (centres unmarked) [Compound 75, 5-(4-bromophenyl)-3-isobutyl-4-(2-methoxyphenyl)-4,5-dihydropyrrolo[3,4-c]pyrazol-6(1H)-one]",CC50 at 72 h,[6],1.14 µM
same,solubility,[7],< 1 µM
same,HSA Binding,human serum albumin,97.5%
same,IC50,[8],500 nM
same,IC50,[4]; Leishmania donovani,200 nM
same,EC50,[4]; [11],240 nM
same,PFI,[9],9.6
"COc1cc(F)ccc1C1c2c(CC(C)C)n[nH]c2C(=O)N1c1ccc(N(C)C)cc1 (centres unmarked) [Compound 82, 5-(4-(dimethylamino)phenyl)-4-(4-fluoro-2-methoxyphenyl)-3-isobutyl-4,5-dihydropyrrolo[3,4-c]pyrazol-6(1H)-one]",CC50 at 72 h,[6],8.5 µM
same,solubility,[7],45 µM
same,HSA Binding,human serum albumin,97.1%
same,IC50,[8],4000 nM
same,EC50,[4]; [11],40 nM
same,PFI,[9],8.8

# Source: patent US20230381142A1, “ANTILEISHMANIAL COMPOUNDS, COMPOSITIONS AND USE THEREOF” (TRUSTEES OF BOSTON UNIVERSITY, priority 2022, published 2023)
